Data from ChEMBL document CHEMBL1201862, “PubChem BioAssay data set” (2004).
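Five compound concentrations were applied to cells in 96-well plates for 48 hours; endpoints were derived by simple linear interpolation of the resulting dose-response curve. Abbreviation: GI50, concentration required for 50% inhibition of growth.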 Activity calls are given as the source filed them. No stated cut-off is given here; in the data, active = GI50 up to about 1.1 µM and inactive = higher.

Legend:
Test in all cases: NCI-60 cell line screen, 48 h
HT-29 = tested on: HT-29
M14 = tested on: M14
NCI-H226 = tested on: NCI-H226
NCI-H23 = tested on: NCI-H23
OVCAR-4 = tested on: OVCAR-4
OVCAR-5 = tested on: OVCAR-5
SF-268 = tested on: SF-268
SF-539 = tested on: SF-539
SK-MEL-28 = tested on: SK-MEL-28
SK-MEL-5 = tested on: SK-MEL-5
SR = tested on: SR
U-251 = tested on: U-251
UACC-62 = tested on: UACC-62
SK-MEL-2 = tested on: SK-MEL-2

Structure (SMILES)	GI50 (HT-29)	GI50 (M14)	GI50 (NCI-H226)	GI50 (NCI-H23)	GI50 (OVCAR-4)	GI50 (OVCAR-5)	GI50 (SF-268)	GI50 (SF-539)	GI50 (SK-MEL-28)	GI50 (SK-MEL-5)	GI50 (SR)	GI50 (U-251)	GI50 (UACC-62)	GI50 (SK-MEL-2)
N=C(N)N/N=C(/c1nc2ccc([N+](=O)[O-])cc2[nH]c1=O)C(O)c1ccc([N+](=O)[O-])cc1 (stereo unspecified)	54.1 µM (inactive)	79.3 µM (inactive)	> 100 µM (inactive)	> 100 µM (inactive)	> 100 µM (inactive)	> 100 µM (inactive)	> 100 µM (inactive)	31.3 µM (inactive)	78.5 µM (inactive)	37.5 µM (inactive)	> 100 µM (inactive)	67.3 µM (inactive)	15.7 µM (inactive)	–
O=C(Nc1ccc(Cl)c(C(F)(F)F)c1)C(=O)C(C(=O)/C=C/c1ccccc1)C1OC(=O)c2ccccc21 (stereo unspecified)	> 100 µM (inactive)	> 100 µM (inactive)	> 100 µM (inactive)	> 100 µM (inactive)	> 100 µM (inactive)	> 100 µM (inactive)	> 100 µM (inactive)	–	–	–	> 100 µM (inactive)	51.9 µM (inactive)	71.1 µM (inactive)	–
O=[N+]([O-])c1ccc(Cc2nc3ccccc3s2)cc1	66.5 µM (inactive)	99.8 µM (inactive)	> 100 µM (inactive)	> 100 µM (inactive)	> 100 µM (inactive)	> 100 µM (inactive)	74.1 µM (inactive)	26.8 µM (inactive)	> 100 µM (inactive)	87.3 µM (inactive)	46 µM (inactive)	44.8 µM (inactive)	68.1 µM (inactive)	> 100 µM (inactive)
CSC(C1c2ccccc2N(C)c2[nH]c(=O)n(C)c(=O)c21)S(=O)(=O)c1ccc(C)cc1 (stereo unspecified)	> 100 µM (inactive)	–	> 100 µM (inactive)	54.8 µM (inactive)	> 100 µM (inactive)	> 100 µM (inactive)	> 100 µM (inactive)	42.7 µM (inactive)	> 100 µM (inactive)	> 100 µM (inactive)	–	> 100 µM (inactive)	> 100 µM (inactive)	> 100 µM (inactive)
Cn1cc2c(n1)c(N/N=C/c1ccccc1)nn1nnnc21	> 100 µM (inactive)	> 100 µM (inactive)	> 100 µM (inactive)	> 100 µM (inactive)	> 100 µM (inactive)	–	> 100 µM (inactive)	> 100 µM (inactive)	> 100 µM (inactive)	> 100 µM (inactive)	> 100 µM (inactive)	> 100 µM (inactive)	> 100 µM (inactive)	–
O=C1[C@@H]2C(c3ccccc3[N+](=O)[O-])=[N+](c3ccccc3)O[C@@H]2C(=O)N1c1ccc(Cc2ccc(N3C(=O)[C@H]4C(c5ccccc5[N+](=O)[O-])=[N+](c5ccccc5)O[C@H]4C3=O)cc2)cc1	> 100 µM (inactive)	16.4 µM (inactive)	74.8 µM (inactive)	> 100 µM (inactive)	> 100 µM (inactive)	> 100 µM (inactive)	> 100 µM (inactive)	> 100 µM (inactive)	> 100 µM (inactive)	43.1 µM (inactive)	> 100 µM (inactive)	> 100 µM (inactive)	67.6 µM (inactive)	> 100 µM (inactive)
c1ccc(N2CCN(CCN3CCc4c([nH]c5ccccc45)C3c3cccnc3)CC2)cc1 (stereo unspecified)	> 100 µM (inactive)	> 100 µM (inactive)	–	> 100 µM (inactive)	> 100 µM (inactive)	> 100 µM (inactive)	> 100 µM (inactive)	20.5 µM (inactive)	> 100 µM (inactive)	> 100 µM (inactive)	> 100 µM (inactive)	> 100 µM (inactive)	> 100 µM (inactive)	–
FC(F)(F)c1nc(-c2ccccc2)oc1Sc1oc(-c2ccccc2)nc1C(F)(F)F	> 100 µM (inactive)	56.9 µM (inactive)	45.2 µM (inactive)	> 100 µM (inactive)	19.7 µM (inactive)	> 100 µM (inactive)	52.5 µM (inactive)	55.6 µM (inactive)	–	> 100 µM (inactive)	46.6 µM (inactive)	54.6 µM (inactive)	> 100 µM (inactive)	> 100 µM (inactive)
COC(=O)NN=C1C(C)(C)C(=O)C1(C)C	> 100 µM (inactive)	> 100 µM (inactive)	> 100 µM (inactive)	> 100 µM (inactive)	–	> 100 µM (inactive)	> 100 µM (inactive)	> 100 µM (inactive)	> 100 µM (inactive)	> 100 µM (inactive)	–	> 100 µM (inactive)	> 100 µM (inactive)	> 100 µM (inactive)
COc1cccc(NC(=O)CC(=O)N2NC(c3ccccc3)C(/N=N/c3cccc(C(=O)O)c3)C2=O)c1 (stereo unspecified)	> 100 µM (inactive)	> 100 µM (inactive)	> 100 µM (inactive)	> 100 µM (inactive)	> 100 µM (inactive)	> 100 µM (inactive)	> 100 µM (inactive)	> 100 µM (inactive)	> 100 µM (inactive)	> 100 µM (inactive)	55.2 µM (inactive)	> 100 µM (inactive)	30.5 µM (inactive)	–
CC1(C)OC(=O)C(C#N)=C1/C=C/c1coc2ccc(Cl)cc2c1=O	> 10 µM (inactive)	35.6 µM (inactive)	29.4 µM (inactive)	21 µM (inactive)	24.6 µM (inactive)	45.1 µM (inactive)	29.5 µM (inactive)	> 10 µM (inactive)	47.5 µM (inactive)	21.9 µM (inactive)	31.5 µM (inactive)	34.4 µM (inactive)	31.7 µM (inactive)	22.1 µM (inactive)
CP(=O)(CCSc1ccccc1)c1ccccc1 (stereo unspecified)	> 100 µM (inactive)	> 100 µM (inactive)	> 100 µM (inactive)	> 100 µM (inactive)	> 100 µM (inactive)	–	> 100 µM (inactive)	> 100 µM (inactive)	> 100 µM (inactive)	> 100 µM (inactive)	> 100 µM (inactive)	> 100 µM (inactive)	> 100 µM (inactive)	–
COc1cc([C@@H]2c3cc4c(cc3[C@@H](NC(=O)c3ccc(C#N)cc3)C3COC(=O)[C@@H]32)OCO4)cc(OC)c1O (stereo partly specified)	1.25 µM (inactive)	0.721 µM (active)	0.0176 µM (active)	0.198 µM (active)	8.93 µM (inactive)	0.794 µM (active)	0.847 µM (active)	0.249 µM (active)	2.43 µM (inactive)	0.743 µM (active)	–	0.106 µM (active)	0.316 µM (active)	2.29 µM (inactive)
CC(=O)OC1[C@H]2c3cc4c(cc3CN3CCC(C[C@@H]1OC(C)=O)C23)OCO4 (stereo partly specified)	> 75 µM (inactive)	> 75 µM (inactive)	8.13 µM (inactive)	> 75 µM (inactive)	–	–	> 75 µM (inactive)	> 75 µM (inactive)	> 75 µM (inactive)	–	> 75 µM (inactive)	> 75 µM (inactive)	> 75 µM (inactive)	–
Fc1cccc(F)c1C1SCc2nc3ccccc3n21 (stereo unspecified) [THIAZOLOBENZIMIDAZOLE]	62.7 µM (inactive)	> 100 µM (inactive)	97.5 µM (inactive)	45.5 µM (inactive)	> 100 µM (inactive)	85.9 µM (inactive)	> 100 µM (inactive)	> 100 µM (inactive)	–	31.5 µM (inactive)	–	> 100 µM (inactive)	47 µM (inactive)	> 100 µM (inactive)
